Reference: the supplement of paper PMC10307832

How the values were obtained:
Assay in all cases: relative viability (nuclei count vs DMSO), 5 days (fraction); higher = more cells survive
Temozolomide + OSI-027 = compound: Cn1nnc2c(C(N)=O)ncn2c1=O [Temozolomide] + COc1cccc2cc(-c3nc([C@H]4CC[C@H](C(=O)O)CC4)n4ncnc(N)c34)[nH]c12 [OSI-027] (partner 0.5 µM)
Outline: (§1)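 Values are medians from duplicate plates. Each reflects relative viability, defined as the nuclei count of treated wells over that of vehicle wells. Lung cancer cell lines in 1536-well plates were pin-tool dosed one day after seeding with one drug alone or with a fixed anchor-drug dose plus five library-drug doses (not always all listed) in √10 steps, then fixed, stained and imaged at 4× after 5 days.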

AZD5582 + Luminespib = compound: C[C@@H](C(=O)N[C@@H](C1CCCCC1)C(=O)N2CCC[C@H]2C(=O)N[C@@H]3[C@@H](CC4=CC=CC=C34)OCC#CC#CCO[C@@H]5CC6=CC=CC=C6[C@@H]5NC(=O)[C@@H]7CCCN7C(=O)[C@H](C8CCCCC8)NC(=O)[C@H](C)NC)NC [AZD5582] + CCNC(=O)c1noc(-c2cc(C(C)C)c(O)cc2O)c1-c1ccc(CN2CCOCC2)cc1 [Luminespib] (partner 0.01 µM)
Outline: as §1

Temozolomide + AZD7762 = compound: Cn1nnc2c(C(N)=O)ncn2c1=O [Temozolomide] + NC(=O)Nc1cc(-c2cccc(F)c2)sc1C(=O)N[C@H]1CCCNC1 [AZD7762] (partner 0.2 µM)
Outline: as §1

AZD5582 + Pictilisib = compound: C[C@@H](C(=O)N[C@@H](C1CCCCC1)C(=O)N2CCC[C@H]2C(=O)N[C@@H]3[C@@H](CC4=CC=CC=C34)OCC#CC#CCO[C@@H]5CC6=CC=CC=C6[C@@H]5NC(=O)[C@@H]7CCCN7C(=O)[C@H](C8CCCCC8)NC(=O)[C@H](C)NC)NC [AZD5582] + CS(=O)(=O)N1CCN(Cc2cc3nc(-c4cccc5[nH]ncc45)nc(N4CCOCC4)c3s2)CC1 [Pictilisib] (partner 1 µM)
Outline: as §1

Row | Cell Line | relative viability (Temozolomide + OSI-027; first compound 0.6325 µM) | relative viability (Temozolomide + OSI-027; first compound 2 µM) | relative viability (Temozolomide + OSI-027; first compound 6.325 µM) | relative viability (Temozolomide + OSI-027; first compound 20 µM) | relative viability (AZD5582 + Luminespib; first compound 0.001581 µM) | relative viability (AZD5582 + Luminespib; first compound 0.005 µM) | relative viability (AZD5582 + Luminespib; first compound 0.01581 µM) | relative viability (AZD5582 + Luminespib; first compound 0.05 µM) | relative viability (Temozolomide + AZD7762; first compound 0.6325 µM) | relative viability (Temozolomide + AZD7762; first compound 2 µM) | relative viability (Temozolomide + AZD7762; first compound 6.325 µM) | relative viability (Temozolomide + AZD7762; first compound 20 µM) | relative viability (Temozolomide + OSI-027; first compound 0.2 µM) | relative viability (AZD5582 + Pictilisib; first compound 0.001581 µM) | relative viability (AZD5582 + Pictilisib; first compound 0.005 µM) | relative viability (AZD5582 + Pictilisib; first compound 0.01581 µM) | relative viability (AZD5582 + Pictilisib; first compound 0.05 µM) | relative viability (Temozolomide + AZD7762; first compound 0.2 µM)
1 | NCI-H1623 | 0.462 | 0.471 | 0.388 | 0.297 | 0.405 | 0.551 | 0.572 | 0.543 | – | – | – | – | – | – | – | – | – | –
2 | NCI-H1648 | 0.23 | 0.262 | 0.235 | 0.274 | – | – | – | – | 0.643 | 0.756 | 0.583 | 0.614 | – | – | – | – | – | –
3 | NCI-H1650 | 0.788 | 0.651 | 0.596 | 0.409 | 0.2 | 0.21 | 0.189 | 0.211 | – | – | – | – | 0.638 | 0.535 | 0.738 | 0.485 | 0.604 | –
4 | NCI-H2009 | 0.597 | 0.682 | 0.699 | 0.698 | 0.959 | 0.987 | 1.02 | 1.09 | – | – | – | – | 0.82 | 0.741 | 0.998 | 0.467 | 0.705 | –
5 | NCI-H2023 | 0.39 | 0.475 | 0.329 | 0.413 | 0.745 | 0.615 | 0.788 | 0.65 | – | – | – | – | 0.375 | 0.227 | 0.288 | 0.172 | 0.246 | –
6 | NCI-H2228 | 0.56 | 0.602 | 0.583 | 0.727 | 0.136 | 0.205 | 0.144 | 0.15 | – | – | – | – | 0.557 | 0.286 | 0.352 | 0.378 | 0.193 | –
7 | NCI-H2342 | 0.665 | 0.618 | 0.59 | 0.678 | 0.784 | 0.887 | 0.737 | 0.755 | 0.447 | 0.516 | 0.506 | 0.549 | 0.544 | – | – | – | – | 0.457
8 | SK-LU-1 | 0.341 | 0.334 | 0.24 | 0.272 | 0.191 | 0.185 | 0.194 | 0.177 | – | – | – | – | 0.408 | 0.422 | 0.357 | 0.494 | 0.325 | –
9 | SK-MES-1 | 0.624 | 0.642 | 0.591 | 0.65 | 0.773 | 0.925 | 0.683 | 0.956 | – | – | – | – | 0.694 | 0.391 | 0.475 | 0.4 | 0.433 | –
10 | SW 900 | 0.618 | 0.47 | 0.5 | 0.744 | 0.168 | 0.169 | 0.208 | 0.188 | 0.63 | 0.583 | 0.627 | 0.683 | 0.569 | – | – | – | – | 0.587
11 | SW 1573 | 0.66 | 0.734 | 0.608 | 0.721 | 0.19 | 0.248 | 0.478 | 0.285 | – | – | – | – | 0.672 | 0.487 | 0.612 | 0.635 | 0.674 | –
12 | UMC-11 | 0.469 | 0.566 | 0.467 | 0.447 | 0.933 | 1.23 | 1.06 | 1.14 | – | – | – | – | 0.554 | 0.722 | 0.842 | 0.648 | 0.666 | –
